Reference: patent US20120083522A1, “MODULATION OF INFLAMMATORY RESPONSES BY FACTOR XI” (Isis Pharmaceuitcals, inc., priority 2009, published 2012)
In the oligonucleotide strings, read from the 5' end, every base follows the letter of its sugar. An asterisk marks phosphorothioate; unmarked linkages are phosphodiester. Other units and linkages are bracketed, terminal groups are in braces. A string of capitals states the bases alone. e = 2'-O-(2-methoxyethyl) (MOE); [5mC] = 5-methylcytosine; d = 2'-deoxy (DNA)

How the values were obtained:
[1] = tested on: Factor XI protein; assay: Cynomolgus monkeys: plasma Factor XI protein ELISA (Example 29); assay type: in vivo
Procedure: (§1) Groups, each consisting of two male and three female monkeys, were injected subcutaneously with ISIS 416838, ISIS 416850, ISIS 416858, ISIS 416864, or ISIS 417002 in escalating doses. Antisense oligonucleotide was administered to the monkeys at 5 mg/kg three times per a week for week 1; 5 mg/kg twice per week for weeks 2 and 3; 10 mg/kg three times per week for week 4; 10 mg/kg twice per week for weeks 5 and 6; 25 mg/kg three times per week for week 7; and 25 mg/kg twice per week for weeks 8, 9, 10, 11, and 12. One control group, consisting of two male and three female monkeys, was injected subcutaneously with PBS according to the same dosing regimen. An additional experimental group, consisting of two male and three female monkeys, was injected subcutaneously with ISIS 416850 in a chronic, lower dose regimen. Antisense oligonucleotide was administered to the monkeys at 5 mg/kg three times per week for week 1; 5 mg/kg twice per week for week 2 and 3; 10 mg/kg three times per week for week 4; and 10 mg/kg twice per week for weeks 5 to 12. Body weights were measured weekly. Blood samples were collected 14 days and 5 days before the start of treatment and subsequently once per week for Factor XI protein activity analysis in plasma and measurement of various hematologic factors. On day 85, the monkeys were euthanized by exsanguination while under deep anesthesia, and organs harvested for further analysis.
Plasma samples from all monkey groups taken on different days were analyzed by a sandwich-style ELISA assay (Affinity Biologicals Inc.) using an affinity-purified polyclonal anti-Factor XI antibody as the capture antibody and a peroxidase-conjugated polyclonal anti-Factor XI antibody as the detecting antibody. Monkey plasma was diluted 1:50 for the assay. Peroxidase activity was expressed by incubation with the substrate o-phenylenediamine. The color produced was quantified using a microplate reader at 490 nm and was considered to be proportional to the concentration of Factor XI in the samples.
The results are presented in Table 122, expressed as percentage reduction relative to that of the PBS control.

[2] = Tolerability in CD1 mice: body and organ weight (Example 25); assay type: in vivo; conditions: 50 mg/kg s.c. twice per week for 6 weeks
[3] = Cynomolgus monkeys: hematology assays (Example 29); assay type: in vivo
Procedure: as §1
The ISIS oligonucleotide, ISIS 416850, given with the chronic dose regimen is distinguished from the other oligonucleotides with an asterisk (*).

[4] = tested on: DSS-induced colitis model; assay: Colitis Study A: DSS-induced colitis, body weight and colon length (Example 12); assay type: in vivo, Swiss Webb mice; conditions: for colon length (in words): FIG. 7C
Procedure: The effect of antisense oligonucleotide inhibition of Factor XI and its role in ameliorating colitis was evaluated in a dextran sulfate sodium (DSS)-induced colitis model. Administration of DSS to animals is a well known method to induce […] and has been previously described by Okayasu et al. (Gastroenterology, 1990, 98:694-702), Cooper et al. (Lab Invest, 1993, 69:238-249) and Dieleman et al. (Clin Exp Immunol, 1998, 114:385-391).
In groups of 8 Swiss Webb mice, 20 mg/kg of ISIS 404071 or ISIS 403102 were injected subcutaneously twice a week for 3 weeks. Two control groups of 8 mice each were injected with PBS twice a week for 3 weeks. After the oligonucleotide treatments, 4% DSS in water was administered ad libitum for 6 days to the experimental groups and one PBS control group.
Mice in all groups were weighed at day 0. Mice were sacrificed at the end of the study on day 7 after DSS was administered and their body weights and colon lengths were measured. Results are presented in Table 24 (expressed as a percentage of the PBS control) and FIG. 7.
Colon length was assessed in the DSS-induced colitis mice.

[5] = tested on: murine Factor XI protein; assay: In vivo antisense inhibition of murine Factor XI: plasma protein analysis (Example 10); conditions: BALB/c mice; for % inhibition: Factor XI protein, relative to PBS control
Procedure: BALB/c mice were injected with 5 mg/kg, 10 mg/kg, 25 mg/kg, or 50 mg/kg of ISIS 404057 or ISIS 404071 twice a week for 3 weeks. A control group of mice was injected with phosphate buffered saline (PBS) twice a week for 3 weeks. Mice were sacrificed 5 days after receiving the last dose. Whole liver was harvested for RNA analysis and plasma was collected for protein analysis.
Results are presented as percent inhibition of Factor XI, relative to PBS control.

[6] = tested on: P-selectin; assay: Colitis Study C: serum P-selectin; assay type: in vivo, mice
Procedure: The effect of antisense inhibition of Factor XI on serum P-selectin levels was evaluated in this study. DSS administration led to increase in P-selectin levels which was reduced by treatment with ISIS 404071.

[7] = DSS-induced colitis, day 7, 20 mg/kg s.c. twice a week for 3 weeks, expressed as a percentage of the PBS control

ISIS 416850: gapmer of Table 8 (antisense eT*eG*e[5mC]*eA*e[5mC]*dA*dG*dT*dT*dT*d[5mC]*dT*dG*dG*d[5mC]*eA*eG*eG*e[5mC]*e[5mC])
Factor XI protein levels (in words) ([1]; Example 29): time-dependent decrease in protein levels
Inhibition of Factor XI protein relative to the PBS control ([1]; chronic, lower dose regimen (*) 5 then 10 mg/kg s.c., day 8): 6%
Inhibition of Factor XI protein relative to the PBS control ([1]; chronic, lower dose regimen (*) 5 then 10 mg/kg s.c., day 15): 13%
Inhibition of Factor XI protein relative to the PBS control ([1]; chronic, lower dose regimen (*) 5 then 10 mg/kg s.c., day 22): 12%
Inhibition of Factor XI protein relative to the PBS control ([1]; chronic, lower dose regimen (*) 5 then 10 mg/kg s.c., day 29): 20%
Inhibition of Factor XI protein relative to the PBS control ([1]; chronic, lower dose regimen (*) 5 then 10 mg/kg s.c., day 36): 22%
Inhibition of Factor XI protein relative to the PBS control ([1]; chronic, lower dose regimen (*) 5 then 10 mg/kg s.c., day 43): 24%
Inhibition of Factor XI protein relative to the PBS control ([1]; chronic, lower dose regimen (*) 5 then 10 mg/kg s.c., day 50): 30%
Inhibition of Factor XI protein relative to the PBS control ([1]; chronic, lower dose regimen (*) 5 then 10 mg/kg s.c., day 57): 34%
Inhibition of Factor XI protein relative to the PBS control ([1]; chronic, lower dose regimen (*) 5 then 10 mg/kg s.c., day 64): 37%
Inhibition of Factor XI protein relative to the PBS control ([1]; chronic, lower dose regimen (*) 5 then 10 mg/kg s.c., day 71): 41%
Inhibition of Factor XI protein relative to the PBS control ([1]; chronic, lower dose regimen (*) 5 then 10 mg/kg s.c., day 78): 42%
Inhibition of Factor XI protein relative to the PBS control ([1]; chronic, lower dose regimen (*) 5 then 10 mg/kg s.c., day 85): 34%
Inhibition of Factor XI protein relative to the PBS control ([1]; chronic, lower dose regimen (*) 5 then 10 mg/kg s.c., day −5 (before treatment)): 1%
Inhibition of Factor XI protein relative to the PBS control ([1]; chronic, lower dose regimen (*) 5 then 10 mg/kg s.c., day −14 (before treatment)): 0%
Inhibition of Factor XI protein relative to the PBS control ([1]; escalating doses 5, 10, 25 mg/kg s.c., day 8): 8%
Inhibition of Factor XI protein relative to the PBS control ([1]; escalating doses 5, 10, 25 mg/kg s.c., day 15): 4%
Inhibition of Factor XI protein relative to the PBS control ([1]; escalating doses 5, 10, 25 mg/kg s.c., day 22): 11%
Inhibition of Factor XI protein relative to the PBS control ([1]; escalating doses 5, 10, 25 mg/kg s.c., day 29): 15%
Inhibition of Factor XI protein relative to the PBS control ([1]; escalating doses 5, 10, 25 mg/kg s.c., day 36): 17%
Inhibition of Factor XI protein relative to the PBS control ([1]; escalating doses 5, 10, 25 mg/kg s.c., day 43): 23%
Inhibition of Factor XI protein relative to the PBS control ([1]; escalating doses 5, 10, 25 mg/kg s.c., day 50): 42%
Inhibition of Factor XI protein relative to the PBS control ([1]; escalating doses 5, 10, 25 mg/kg s.c., day 57): 49%
Inhibition of Factor XI protein relative to the PBS control ([1]; escalating doses 5, 10, 25 mg/kg s.c., day 64): 55%
Inhibition of Factor XI protein relative to the PBS control ([1]; escalating doses 5, 10, 25 mg/kg s.c., day 71): 57%
Inhibition of Factor XI protein relative to the PBS control ([1]; escalating doses 5, 10, 25 mg/kg s.c., day 78): 63%
Inhibition of Factor XI protein relative to the PBS control ([1]; escalating doses 5, 10, 25 mg/kg s.c., day 85): 64%
Inhibition of Factor XI protein relative to the PBS control ([1]; escalating doses 5, 10, 25 mg/kg s.c., day −5 (before treatment)): 0%
Inhibition of Factor XI protein relative to the PBS control ([1]; escalating doses 5, 10, 25 mg/kg s.c., day −14 (before treatment)): 0%
Body weight (increase over PBS control weight before start of treatment) [2]: 11 g
Kidney weight as percentage of body weight ([2]; end of study): 1.5%
Liver weight as percentage of body weight ([2]; end of study): 6%
Spleen weight as percentage of body weight ([2]; end of study): 0.4%
platelet count ([3]; day 8): 548000 µL⁻¹
platelet count ([3]; day 8, chronic dose regimen (*)): 401000 µL⁻¹
platelet count ([3]; day 15): 559000 µL⁻¹
platelet count ([3]; day 15, chronic dose regimen (*)): 396000 µL⁻¹
platelet count ([3]; day 22): 466000 µL⁻¹
platelet count ([3]; day 22, chronic dose regimen (*)): 347000 µL⁻¹
platelet count ([3]; day 29): 475000 µL⁻¹
platelet count ([3]; day 29, chronic dose regimen (*)): 370000 µL⁻¹
platelet count ([3]; day 36): 505000 µL⁻¹
platelet count ([3]; day 36, chronic dose regimen (*)): 379000 µL⁻¹
platelet count ([3]; day 43): 490000 µL⁻¹
platelet count ([3]; day 43, chronic dose regimen (*)): 391000 µL⁻¹
platelet count ([3]; day 50): 487000 µL⁻¹
platelet count ([3]; day 50, chronic dose regimen (*)): 351000 µL⁻¹
Monocytes ([3]; day 57): n.d. 3.2%
platelet count ([3]; day 57): 528000 µL⁻¹
Monocytes ([3]; day 64): n.d. 3.5%
platelet count ([3]; day 64): 496000 µL⁻¹
Monocytes ([3]; day 71): n.d. 4.7%
platelet count ([3]; day 71): 465000 µL⁻¹
Monocytes ([3]; day 78): n.d. 4.5%
platelet count ([3]; day 78): 449000 µL⁻¹
Monocytes ([3]; day 85): n.d. 3.5%
platelet count ([3]; day 85): 458000 µL⁻¹
platelet count ([3]; day −5): 573000 µL⁻¹
platelet count ([3]; day −5, chronic dose regimen (*)): 434000 µL⁻¹
platelet count ([3]; day −14): 528000 µL⁻¹
platelet count ([3]; day −14, chronic dose regimen (*)): 387000 µL⁻¹

TGGTAATCCACTTTCAGAGG (eT*eG*eG*eT*eA*dA*dT*d[5mC]*d[5mC]*dA*d[5mC]*dT*dT*dT*d[5mC]*eA*eG*eA*eG*eG) [ISIS 404071, 5-10-5 MOE gapmer targeting murine Factor XI, target start site 869]
body weight (in words) ([4]; Colitis Study A, FIG. 7A/7B): did not have any significant change in body weight
colon length (in words) ([4]; Colitis Study A, listed as Factor XI ASO): had no significant change in colon length
colon length (in words) ([4]; Colitis Study A, listed as Factor XI oligonucleotide): decreased the amount of colon shortening
Body weight change [4, 7]: −2%
Colon length change [4, 7]: −13%
Factor XI protein (in words) ([5]; 5-50 mg/kg twice a week for 3 weeks): significant dose-dependent reduction of Factor XI protein
% inhibition ([5]; 5 mg/kg twice a week for 3 weeks): 39%
% inhibition ([5]; 10 mg/kg twice a week for 3 weeks): 67%
% inhibition ([5]; 25 mg/kg twice a week for 3 weeks): 89%
% inhibition ([5]; 50 mg/kg twice a week for 3 weeks): 96%
P-selectin levels (in words) [6]: reduced
P-selectin ([6]; DSS-induced colitis mice): 83 ng/mL
